Measurements taken from patent US12383556B2, “Methods of treating Sjögren's syndrome using a Bruton's tyrosine kinase inhibitor” (NOVARTIS AG, priority 2019, dated 2025).
Read-outs that look alike come from different tables or passages of the source.

Experiment: First-in-human Part 2 multiple ascending dose q.d. blood and urine PK
Format: in vivo
Details: human, oral; for Cmax: read-out: Cmax; for MRT: read-out: MRT; for Vd/F: read-out: Vss/F; for half-life: read-out: T½ (converted)
Text: First-in-human study in up to approximately 168 healthy volunteers (HVs), of which 64 (in Parts 2 & 4) had asymptomatic atopic diathesis. • Part 1 was a double-blind (subject and investigator blind, sponsor unblinded), placebo-controlled single ascending dose (SAD) escalation study of 10 cohorts (N=80) • Part 2 was a double-blind (subject and investigator blind, sponsor unblinded), placebo-controlled multiple ascending dose (MAD) (13 doses over 12 days) escalation study employing once daily dosing in 6 cohorts in healthy volunteers with asymptomatic atopic diathesis (N=48) • Part 3 was a single dose open-label crossover food effect study in 12 HVs • Part 4 was a double-blind (subject and investigator blind, sponsor unblinded), placebo-controlled multiple dose (25 doses over 12 days) study employing twice daily dosing in 2 cohorts of healthy volunteers with asymptomatic atopic diathesis (N=16)
In Parts 2 and 4, subjects were admitted on Day −2 or −1 for baseline safety assessments and to confirm eligibility. Eligible subjects received the first dose of compound (I) under fasting conditions on Day 1, and continued to take study medication under fasting conditions up to and including Day 12. Subjects were domiciled from Day −2 or −1 until the morning of Day 16, which equals 96 hours after the last dose of compound (I) was received. In Parts 2 and 4, the study medication was given once daily and twice daily respectively (details are found in the schedule of assessments).
Subjects were assigned to one of the following 6 cohorts. In each cohort, 8 subjects were randomized to either compound (I) or matching placebo in a 6:2 ratio. • Cohort 1: multiple oral doses of 10 mg compound (I) or matching placebo • Cohort 2: multiple oral doses of 25 mg compound (I) or matching placebo • Cohort 3: multiple oral doses of 50 mg compound (I) or matching placebo • Cohort 4: multiple oral doses of 100 mg compound (I) or matching placebo • Cohort 5: multiple oral doses of 400 mg compound (I) or matching placebo • Cohort 6: multiple oral doses of up to 600 mg compound (I) or matching placebo
Pharmacokinetic samples were obtained in blood and evaluated in all subjects at all dose levels. The samples from placebo subjects were not analyzed. The samples for PK assessments from subjects were collected at time points defined in the study. Compound (I) concentrations were determined in blood by a validated LC-MS/MS method.

[1] = blood, 10 mg, 10 mg qd, Day 1, blood, Median (Min-Max)
[2] = blood, 10 mg, 10 mg qd, Day 12, blood, Median (Min-Max)
[3] = blood, 25 mg, 25 mg qd, Day 1, blood, Median (Min-Max)
[4] = blood, 25 mg, 25 mg qd, Day 12, blood, Median (Min-Max)
[5] = blood, 50 mg, 50 mg qd, Day 1, blood, Median (Min-Max)
[6] = blood, 50 mg, 50 mg qd, Day 12, blood, Median (Min-Max)
[7] = blood, 100 mg, 100 mg qd, Day 12, blood, Median (Min-Max)
[8] = blood, 400 mg, 400 mg qd, Day 12, blood, Median (Min-Max)
[9] = blood, 600 mg, 600 mg qd, Day 12, blood, Median (Min-Max)

C=CC(=O)N(C)CCOc1c(N)ncnc1-c1cc(F)cc(NC(=O)c2ccc(C3CC3)cc2F)c1C [Compound of Formula (I), N-(3-(6-Amino-5-(2-(N-methylacrylamido)ethoxy)pyrimidin-4-yl)-5-fluoro-2-methylphenyl)-4-cyclopropyl-2-fluorobenzamide]
AUC(0-t) (blood, 10 mg, 10 mg qd, Day 1, blood, Median (Min-Max), read-out: AUClast): 4.4 ng·h/mL
Cmax [1]: 8.03 ng/mL
MRT [1]: 0.766 h
Vd/F (blood, 10 mg, 10 mg qd, Day 12, blood, Mean ± SD): 554 ± 90.4 L
Tmax [2]: 37.5 min
Cmax [2]: 17.2 ng/mL
Vd/F [2]: 562 L
AUC(0-t) (blood, 25 mg, 25 mg qd, Day 1, blood, Mean ± SD, read-out: AUC0-24): 44.9 ± 25.2 ng·h/mL
AUC(0-t) (blood, 25 mg, 25 mg qd, Day 1, blood, Mean ± SD, read-out: AUClast): 43.9 ± 24.6 ng·h/mL
MRT (blood, 25 mg, 25 mg qd, Day 1, blood, Mean ± SD): 1.18 ± 0.49 h
AUC(0-t) (blood, 25 mg, 25 mg qd, Day 1, blood, Median (Min-Max), read-out: AUC0-24): 46.6 ng·h/mL
AUC(0-t) (blood, 25 mg, 25 mg qd, Day 1, blood, Median (Min-Max), read-out: AUClast): 45.5 ng·h/mL
Cmax [3]: 37.3 ng/mL
MRT [3]: 1.17 h
Vd/F (blood, 25 mg, 25 mg qd, Day 12, blood, Mean ± SD): 407 ± 208 L
Cmax [4]: 78.4 ng/mL
Vd/F [4]: 334 L
AUC(0-t) (blood, 50 mg, 50 mg qd, Day 1, blood, Mean ± SD, read-out: AUC0-24): 116 ± 32.9 ng·h/mL
AUC(0-t) (blood, 50 mg, 50 mg qd, Day 1, blood, Mean ± SD, read-out: AUClast): 113 ± 34.2 ng·h/mL
MRT (blood, 50 mg, 50 mg qd, Day 1, blood, Mean ± SD): 2.53 ± 1.17 h
Tmax [5]: 30 min
AUC(0-t) (blood, 50 mg, 50 mg qd, Day 1, blood, Median (Min-Max), read-out: AUC0-24): 107 ng·h/mL
AUC(0-t) (blood, 50 mg, 50 mg qd, Day 1, blood, Median (Min-Max), read-out: AUClast): 103 ng·h/mL
Cmax [5]: 70.1 ng/mL
MRT [5]: 2.44 h
Vd/F (blood, 50 mg, 50 mg qd, Day 12, blood, Mean ± SD): 431 ± 172 L
Tmax [6]: 60 min
Vd/F [6]: 346 L
MRT (blood, 100 mg, 100 mg qd, Day 1, blood, Median (Min-Max)): 2.16 h
Vd/F (blood, 100 mg, 100 mg qd, Day 12, blood, Mean ± SD): 1910 ± 2780 L
Cmax [7]: 205 ng/mL
Vd/F [7]: 338 L
AUC(0-t) (blood, 400 mg, 400 mg qd, Day 1, blood, Median (Min-Max), read-out: AUC0-24): 826 ng·h/mL
AUC(0-t) (blood, 400 mg, 400 mg qd, Day 1, blood, Median (Min-Max), read-out: AUClast): 826 ng·h/mL
MRT (blood, 400 mg, 400 mg qd, Day 1, blood, Median (Min-Max)): 2.94 h
Vd/F (blood, 400 mg, 400 mg qd, Day 12, blood, Mean ± SD): 4400 ± 3340 L
Cmax [8]: 476 ng/mL
Vd/F [8]: 3440 L
AUC(0-t) (blood, 600 mg, 600 mg qd, Day 1, blood, Median (Min-Max), read-out: AUC0-24): 932 ng·h/mL
AUC(0-t) (blood, 600 mg, 600 mg qd, Day 1, blood, Median (Min-Max), read-out: AUClast): 931 ng·h/mL
MRT (blood, 600 mg, 600 mg qd, Day 1, blood, Median (Min-Max)): 3.22 h
Vd/F (blood, 600 mg, 600 mg qd, Day 12, blood, Mean ± SD): 7130 ± 5120 L
Cmax [9]: 475 ng/mL
Vd/F [9]: 7070 L
concentration at 24 h (blood, multiple doses, typical, read-out: blood concentration at 24 hours post last dose): < 1 ng/mL
AUC(0-inf) (whole blood, 10 mg, 10 mg qd, Day 12, blood, Mean ± SD): 24.7 ± 3.65 ng·h/mL
AUC(0-t) (whole blood, 10 mg, 10 mg qd, Day 12, blood, Mean ± SD, read-out: AUC0-24): 24 ± 3.6 ng·h/mL
AUC(0-t) (whole blood, 10 mg, 10 mg qd, Day 12, blood, Mean ± SD, read-out: AUClast): 22.9 ± 3.5 ng·h/mL
AUC(0-inf) (whole blood, 10 mg, 10 mg qd, Day 12, blood, Median (Min-Max)): 24.3 ng·h/mL
AUC(0-t) (whole blood, 10 mg, 10 mg qd, Day 12, blood, Median (Min-Max), read-out: AUC0-24): 23.6 ng·h/mL
AUC(0-t) (whole blood, 10 mg, 10 mg qd, Day 12, blood, Median (Min-Max), read-out: AUClast): 22.4 ng·h/mL
AUC(0-inf) (whole blood, 25 mg, 25 mg qd, Day 12, blood, Mean ± SD): 117 ± 60.4 ng·h/mL
AUC(0-t) (whole blood, 25 mg, 25 mg qd, Day 12, blood, Mean ± SD, read-out: AUC0-24): 117 ± 60.9 ng·h/mL
AUC(0-t) (whole blood, 25 mg, 25 mg qd, Day 12, blood, Mean ± SD, read-out: AUClast): 114 ± 59.7 ng·h/mL
AUC(0-inf) (whole blood, 25 mg, 25 mg qd, Day 12, blood, Median (Min-Max)): 102 ng·h/mL
AUC(0-t) (whole blood, 25 mg, 25 mg qd, Day 12, blood, Median (Min-Max), read-out: AUC0-24): 101 ng·h/mL
AUC(0-t) (whole blood, 25 mg, 25 mg qd, Day 12, blood, Median (Min-Max), read-out: AUClast): 98.2 ng·h/mL
AUC(0-inf) (whole blood, 50 mg, 50 mg qd, Day 12, blood, Mean ± SD): 209 ± 80 ng·h/mL
AUC(0-t) (whole blood, 50 mg, 50 mg qd, Day 12, blood, Mean ± SD, read-out: AUC0-24): 209 ± 80.2 ng·h/mL
AUC(0-t) (whole blood, 50 mg, 50 mg qd, Day 12, blood, Mean ± SD, read-out: AUClast): 207 ± 80.4 ng·h/mL
AUC(0-inf) (whole blood, 50 mg, 50 mg qd, Day 12, blood, Median (Min-Max)): 181 ng·h/mL
AUC(0-t) (whole blood, 50 mg, 50 mg qd, Day 12, blood, Median (Min-Max), read-out: AUC0-24): 181 ng·h/mL
AUC(0-t) (whole blood, 50 mg, 50 mg qd, Day 12, blood, Median (Min-Max), read-out: AUClast): 179 ng·h/mL
AUC(0-inf) (whole blood, 100 mg, 100 mg qd, Day 12, blood, Mean ± SD): 577 ± 207 ng·h/mL
AUC(0-inf) (whole blood, 100 mg, 100 mg qd, Day 12, blood, Median (Min-Max)): 595 ng·h/mL
AUC(0-t) (whole blood, 100 mg, 100 mg qd, Day 12, blood, Median (Min-Max), read-out: AUC0-24): 429 ng·h/mL
AUC(0-t) (whole blood, 100 mg, 100 mg qd, Day 12, blood, Median (Min-Max), read-out: AUClast): 444 ng·h/mL
AUC(0-inf) (whole blood, 400 mg, 400 mg qd, Day 12, blood, Mean ± SD): 1330 ± 608 ng·h/mL
AUC(0-inf) (whole blood, 400 mg, 400 mg qd, Day 12, blood, Median (Min-Max)): 1210 ng·h/mL
AUC(0-t) (whole blood, 400 mg, 400 mg qd, Day 12, blood, Median (Min-Max), read-out: AUC0-24): 1140 ng·h/mL
AUC(0-t) (whole blood, 400 mg, 400 mg qd, Day 12, blood, Median (Min-Max), read-out: AUClast): 1180 ng·h/mL
AUC(0-inf) (whole blood, 600 mg, 600 mg qd, Day 12, blood, Mean ± SD): 1260 ± 338 ng·h/mL
AUC(0-inf) (whole blood, 600 mg, 600 mg qd, Day 12, blood, Median (Min-Max)): 1090 ng·h/mL
AUC(0-t) (whole blood, 600 mg, 600 mg qd, Day 12, blood, Median (Min-Max), read-out: AUC0-24): 1060 ng·h/mL
half-life (whole blood, 10 mg qd, Day 12, blood, Median (Min-Max)): 57.7 min
half-life (whole blood, 25 mg qd, Day 12, blood, Median (Min-Max)): 69 min
half-life (whole blood, 50 mg qd, Day 12, blood, Median (Min-Max)): 69 min
